“And” between values parts separate entries of the source, which are not always exact repeats. Equal entries are not always repeated. Where two headings read alike, the source gives them in different places.
Columns and labels:
[1] = system: barley; assay: Germination of treated barley kernels (percentage of living kernels); assay type: in vivo; conditions: 500 ppm PAA
Procedure: The grains treated with PAA as described in Example 4 were further tested for germination. After the treatment, the PAA solution was decanted and kernels were immediately transferred into Petri dishes and placed between two wet paper towels for germination tests. The treated kernels were not washed with water. The germination continued in a water bath at room temperature for 2 days. Germination was evaluated by the percentage of living kernels in a sample of barley.

[2] = system: all microbial populations tested (APC, ECC, YM); assay: Micro tests on barley grains, all microbial populations tested (APC, ECC, YM); assay type: cell-based
Procedure: The treatment was performed at 20° C. as follows: 100 ml of PAA solution at 500 ppm (unadjusted or adjusted to pH=9.0) were applied to 10.0 g of wet barley grains. Solutions with the grains were then shaken for 30 seconds and then the acid solution was neutralized by addition of 0.5 g sodium thiosulfate. The solutions were then used to evaluate effect of PAA treatment on total microbial count (APC), coliforms (ECC), and yeast and mold (YM). Control samples were treated with DI water.
Each sample was diluted serially into Butterfield's phosphate buffer, and the dilutions were plated on Petrifilm™ (3M, Minneapolis, MN) plates specific for different types of microorganisms. The plates were incubated for 48 hours at 35° C. for APC, and for 5 days at 25° C. for YM. For ECC, the incubation was done at 35° C. for 24 hours, then coliforms were counted, and incubation continued for an additional 24 hours at 35° C. Grown colonies on plates were counted and expressed in CFU/10 g barley grains for each treatment. The tests were done in duplicates.

[3] = system: Fusarium graminearum 46779; assay type: cell-based
[4] = system: yeast and mold (YM); assay type: cell-based; conditions: 500 ppm PAA
[5] = system: total microbial count (APC); assay type: cell-based
[6] = system: coliforms (ECC); assay type: cell-based
[7] = germinated barley treated before kilning, pH = 3, 30 s, testing after germination, * = complete kill
[8] = germinated barley treated before kilning, pH = 3, 30 s, testing after kilning, * = complete kill
[9] = germinated barley treated before kilning, pH = 9, 30 s, testing after germination
[10] = germinated barley treated before kilning, pH = 9, 30 s, testing after kilning, * = complete kill
[11] = germinated barley, pH = 3.1, 30 seconds
[12] = germinated barley, pH = 9.0, 30 seconds
[13] = steeped barley, pH = 3.1 (unadjusted), 30 seconds, 20° C.
[14] = steeped barley, pH = 9.0, 30 seconds, 20° C.
[15] = steeped barley, pH = 10.0, 30 s
[16] = steeped barley, unadjusted (pH=3.1), 5 s
[17] = steeped barley, unadjusted (pH=3.1), 30 s
[18] = germinated barley treated before kilning, 500 ppm PAA, pH = 3, 30 s, testing after germination
[19] = germinated barley treated before kilning, 500 ppm PAA, pH = 3, 30 s, testing after kilning
[20] = germinated barley treated before kilning, 500 ppm PAA, pH = 9, 30 s, testing after germination
[21] = germinated barley treated before kilning, 500 ppm PAA, pH = 9, 30 s, testing after kilning
[22] = germinated barley, 500 ppm PAA, pH = 3.1, 30 seconds
[23] = germinated barley, 500 ppm PAA, pH = 9.0, 30 seconds
[24] = steeped barley, 500 ppm PAA, pH = 3.1 (unadjusted), 30 seconds, 20° C.
[25] = steeped barley, 500 ppm PAA, pH = 6.5, 5 s
[26] = steeped barley, 500 ppm PAA, pH = 6.5, 30 s
[27] = steeped barley, 500 ppm PAA, pH = 9, 5 s
[28] = steeped barley, 500 ppm PAA, pH = 9, 30 s
[29] = steeped barley, 500 ppm PAA, pH = 9.0, 30 seconds, 20° C.
[30] = steeped barley, 500 ppm PAA, pH = 9, 10 min
[31] = steeped barley, 500 ppm PAA, pH = 10.0, 5 s
[32] = steeped barley, 500 ppm PAA, pH = 10.0, 30 s
[33] = steeped barley, 500 ppm PAA, unadjusted (pH=3.1), 5 s
[34] = steeped barley, 500 ppm PAA, unadjusted (pH=3.1), 30 s
[35] = test on day 2, treated once, day 2 (after steeping), 500 ppm PAA, 2:1, 10 minutes, 20° C.
[36] = test on day 4, treated once, day 2, 500 ppm PAA, 10 minutes
[37] = test on day 4, treated twice, days 2 and 4, 500 ppm PAA, 10 min each
[38] = germinated barley treated before kilning, 500 ppm PAA, pH = 3, 30 s, testing after kilning, * = complete kill
[39] = germinated barley treated before kilning, 500 ppm PAA, pH = 9, 30 s, testing after kilning, * = complete kill

Compound: CC(=O)OO [PAA, peracetic acid]
- Germination ([1]; pH 3.1, 30 s, germination 2 days): 100%
- Germination ([1]; pH 3.1, 5 min, germination 2 days): 100%
- Germination ([1]; pH 3.1, 10 min, germination 2 days): 94%
- Germination ([1]; pH 3.1, 30 min, germination 2 days): 73%
- Germination ([1]; pH 9.0, 30 s, germination 2 days): 100%
- Germination ([1]; pH 9.0, 5 min, germination 2 days): 100%
- Germination ([1]; pH 9.0, 10 min, germination 2 days): 100%
- Germination ([1]; pH 9.0, 30 min, germination 2 days): 99%
- Germination ([1]; pH 9.0, longer treatment times (10 min and 30 min)): ~100%
- effect on germination ([1]; short treatment times (0.5-5 min)): practically did not affect the germination
- effect on germination ([1]; unadjusted (acidic) solution, longer treatment times (10 min and especially 30 min)): suppressed germination
- reduction of all microorganisms ([2]; germinated barley, unadjusted PAA 500 ppm, 30 seconds (Example 2)): 1-2 Log10
- reduction ([2]; steeped barley, 500 ppm PAA at higher pH (pH=9.0), given sufficient time (Example 4)): 2-3 Log10
- reduction of all microorganisms ([2]; steeped barley, 500 ppm PAA, 30 s (Example 4)): 2.0-4.5 Log10
- reduction in all microbial populations tested ([2]; steeped barley, 500 ppm PAA, 30 seconds, pH 3.1 and 9.0 (Example 1)): 1.5-2.1 Log10
- kill of Fusarium [3]: complete kill
- YM Log10 [4, 7]: 0.00* Log10
- YM Log10 Reduction [4, 7]: 4.67* Log10
- YM Log10 [4, 8]: 0.00* Log10
- YM Log10 Reduction [4, 8]: 2.00* Log10
- YM Log10 [4, 9]: 2.92 Log10
- YM Log10 Reduction [4, 9]: 1.75 Log10
- YM Log10 [4, 10]: 0.00* Log10
- YM Log10 Reduction [4, 10]: 2.00* Log10
- YM Log10 (CFU/10 g barley grains) [4, 11]: 3.60 Log10
- YM Log10 Reduction [4, 11]: 1.86 Log10
- YM Log10 (CFU/10 g barley grains) [4, 12]: 3.83 Log10
- YM Log10 Reduction [4, 12]: 1.63 Log10
- YM Log10 (CFU/10 g barley grains) [4, 13]: 3.84 Log10
- YM Log10 Reduction [4, 13]: 1.75 Log10
- YM Log10 ([4]; steeped barley, pH = 6.5, 5 s): 1.30 Log10
- YM Log10 Reduction ([4]; steeped barley, pH = 6.5, 5 s): 2.46 Log10
- YM Log10 ([4]; steeped barley, pH = 6.5, 30 s): 0.00 Log10
- YM Log10 Reduction ([4]; steeped barley, pH = 6.5, 30 s): 3.76 Log10
- YM Log10 ([4]; steeped barley, pH = 9, 5 s): 3.86 Log10
- YM Log10 Reduction ([4]; steeped barley, pH = 9, 5 s): 0.62 Log10
- YM Log10 ([4]; steeped barley, pH = 9, 30 s): 2.60 Log10
- YM Log10 Reduction ([4]; steeped barley, pH = 9, 30 s): 1.88 Log10
- YM Log10 (CFU/10 g barley grains) [4, 14]: 4.06 Log10
- YM Log10 Reduction [4, 14]: 1.53 Log10
- YM Log10 ([4]; steeped barley, pH = 9, 10 min): 2.80 Log10
- YM Log10 Reduction ([4]; steeped barley, pH = 9, 10 min): 1.79 Log10
- YM Log10 ([4]; steeped barley, pH = 10.0, 5 s): 3.52 Log10
- YM Log10 Reduction ([4]; steeped barley, pH = 10.0, 5 s): 0.24 Log10
- YM Log10 [4, 15]: 3.16 Log10
- YM Log10 Reduction [4, 15]: 0.60 Log10
- YM Log10 [4, 16]: 2.95 Log10
- YM Log10 Reduction [4, 16]: 1.53 Log10
- YM Log10 [4, 17]: 0.00 Log10
- YM Log10 Reduction [4, 17]: 4.48 Log10
- APC Log10 [5, 18]: 7.22 Log10
- APC Log10 Reduction [5, 18]: 1.47 Log10
- APC Log10 [5, 19]: 3.78 Log10
- APC Log10 Reduction [5, 19]: 2.59 Log10
- APC Log10 [5, 20]: 7.86 Log10
- APC Log10 Reduction [5, 20]: 0.83 Log10
- APC Log10 [5, 21]: 5.14 Log10
- APC Log10 Reduction [5, 21]: 1.23 Log10
- APC Log10 (CFU/10 g barley grains) [5, 22]: 7.23 Log10
- APC Log10 Reduction [5, 22]: 1.98 Log10
- APC Log10 (CFU/10 g barley grains) [5, 23]: 8.01 Log10
- APC Log10 Reduction [5, 23]: 1.20 Log10
- APC Log10 (CFU/10 g barley grains) [5, 24]: 6.99 Log10
- APC Log10 Reduction [5, 24]: 2.16 Log10
- APC Log10 [5, 25]: 7.34 Log10
- APC Log10 Reduction [5, 25]: 1.73 Log10
- APC Log10 [5, 26]: 6.51 Log10
- APC Log10 Reduction [5, 26]: 2.56 Log10
- APC Log10 [5, 27]: 7.97 Log10
- APC Log10 Reduction [5, 27]: 0.51 Log10
- APC Log10 [5, 28]: 6.72 Log10
- APC Log10 Reduction [5, 28]: 1.75 Log10
- APC Log10 (CFU/10 g barley grains) [5, 29]: 7.34 Log10
- APC Log10 Reduction [5, 29]: 1.81 Log10
- APC Log10 [5, 30]: 6.25 Log10
- APC Log10 Reduction [5, 30]: 2.23 Log10
- APC Log10 [5, 31]: 8.28 Log10
- APC Log10 Reduction [5, 31]: 0.79 Log10
- APC Log10 [5, 32]: 7.35 Log10
- APC Log10 Reduction [5, 32]: 1.72 Log10
- APC Log10 [5, 33]: 8.19 Log10
- APC Log10 Reduction [5, 33]: 0.29 Log10
- APC Log10 [5, 34]: 6.54 Log10
- APC Log10 Reduction [5, 34]: 1.93 Log10
- APC Log10 [5, 35]: 3.84 Log10
- APC Log10 Reduction [5, 35]: 4.30 Log10
- APC Log10 [5, 36]: 6.72 Log10
- APC Log10 Reduction [5, 36]: 2.5 Log10 and 2.52 Log10
- APC Log10 [5, 37]: 5.78 Log10
- APC Log10 Reduction [5, 37]: 3.46 Log10
- ECC Log10 [6, 18]: 6.59 Log10
- ECC Log10 Reduction [6, 18]: 1.67 Log10
- ECC Log10 [6, 38]: 0.00* Log10
- ECC Log10 Reduction [6, 38]: 3.25* Log10
- ECC Log10 [6, 20]: 6.68 Log10
- ECC Log10 Reduction [6, 20]: 1.58 Log10
- ECC Log10 [6, 39]: 0.00* Log10
- ECC Log10 Reduction [6, 39]: 3.25* Log10
- ECC Log10 (CFU/10 g barley grains) [6, 22]: 6.83 Log10
- ECC Log10 Reduction [6, 22]: 1.16 Log10
- ECC Log10 (CFU/10 g barley grains) [6, 23]: 7.39 Log10
- ECC Log10 Reduction [6, 23]: 0.60 Log10
- ECC Log10 (CFU/10 g barley grains) [6, 24]: 5.99 Log10
- ECC Log10 Reduction [6, 24]: 1.91 Log10
- ECC Log10 [6, 25]: 5.94 Log10
- ECC Log10 Reduction [6, 25]: 1.66 Log10
- ECC Log10 [6, 26]: 5.26 Log10
- ECC Log10 Reduction [6, 26]: 2.34 Log10
- ECC Log10 [6, 27]: 5.48 Log10
- ECC Log10 Reduction [6, 27]: 1.73 Log10
- ECC Log10 [6, 28]: 4.78 Log10
- ECC Log10 Reduction [6, 28]: 2.43 Log10
- ECC Log10 (CFU/10 g barley grains) [6, 29]: 5.79 Log10
- ECC Log10 Reduction [6, 29]: 2.11 Log10
- ECC Log10 [6, 30]: 3.63 Log10
- ECC Log10 Reduction [6, 30]: 3.57 Log10
- ECC Log10 [6, 31]: 6.49 Log10
- ECC Log10 Reduction [6, 31]: 1.11 Log10
- ECC Log10 [6, 32]: 5.27 Log10
- ECC Log10 Reduction [6, 32]: 2.33 Log10
- ECC Log10 [6, 33]: 4.60 Log10
- ECC Log10 Reduction [6, 33]: 2.60 Log10
- ECC Log10 [6, 34]: 2.60 Log10
- ECC Log10 Reduction [6, 34]: 4.60 Log10
- ECC Log10 [6, 35]: 0.00 Log10
- ECC Log10 Reduction [6, 35]: 4.36 Log10
- ECC Log10 [6, 36]: 5.41 Log10
- ECC Log10 Reduction [6, 36]: 1.8 Log10 and 1.82 Log10
- ECC Log10 [6, 37]: 4.95 Log10
- ECC Log10 Reduction [6, 37]: 2.28 Log10
- kill of ECC microorganisms ([6]; unadjusted PAA 500 ppm, treated after germination): complete kill
